Values quoted from earlier work, collected in paper PMC3074590 (Science (New York, N.Y.), 2010).

Test system: CXCR4
Conditions: characterized previously; no reference printed at this statement

## CC1(C)CN2C(CSC(=NC3CCCCC3)NC3CCCCC3)=CSC2=N1 [IT1t]
  mode of inhibition of CXCL12: competitive inhibitors of CXCL12
